According to publication PMC4445455 (The FEBS journal, 2015):
Like-named read-outs stand apart in the source and are kept apart here.

Columns and labels:
[1] = molecular target: T1, E. coli DHFR (Escherichia coli, UniProt P0ABQ4); type: biochemical; settings: for inhibition at 1 mM inhibitor concentration (in words): E. coli DHFR
[2] = molecular target: T2, human DHFR (Homo sapiens, UniProt P00374); type: biochemical
T2 sequence (P00374 1-187): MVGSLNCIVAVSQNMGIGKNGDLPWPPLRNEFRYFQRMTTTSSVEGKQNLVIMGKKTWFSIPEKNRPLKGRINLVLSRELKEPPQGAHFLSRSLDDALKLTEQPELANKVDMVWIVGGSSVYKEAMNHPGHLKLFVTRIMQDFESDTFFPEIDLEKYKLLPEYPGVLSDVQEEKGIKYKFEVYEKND

[3] = Solubility in water
[4] = molecular target: T1, E. coli DHFR; settings: product inhibition; cited from earlier work
[5] = molecular target: T2, human DHFR; settings: product inhibition; cited from earlier work
[6] = tested on: cancer cells; settings: previous study; cited from earlier work
[7] = previous study; cited from earlier work
[8] = molecular target: T1, E. coli DHFR; assay: Inhibition kinetics: substrate titration at fixed inhibitor concentrations; type: biochemical
[9] = molecular target: T1, E. coli DHFR; assay: Progress curve analysis, slow tight binding; type: biochemical
[10] = molecular target: T2, human DHFR; assay: Progress curve analysis, slow tight binding, human DHFR; type: biochemical; settings: time course of NADPH depletion
[11] = IC-50, human DHFR 12.4 nM, 60 μM NADPH, 50 μM H2F, 100 mM HEPES pH 7.3

T1 sequence (P0ABQ4 whole entry): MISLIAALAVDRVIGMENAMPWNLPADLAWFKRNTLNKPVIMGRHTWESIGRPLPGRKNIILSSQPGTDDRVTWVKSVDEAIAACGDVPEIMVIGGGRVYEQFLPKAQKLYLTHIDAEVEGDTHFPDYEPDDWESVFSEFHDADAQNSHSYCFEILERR

| Structure (SMILES) | IC50 [1] [µM] | Ki [1] [µM] | solubility in water [3] | inhibition at 1 mM inhibitor concentration (in words) [1] | Ki [2] [nM] | IC50 [2, 11] [µM] | also measured |
| --- | --- | --- | --- | --- | --- | --- | --- |
| C1=Cc2ccccc2Nc2ccccc21 [ISB, 2,2'-Iminostilbene] | 587.8 ± 1.2 | 35.2 ± 5.36 | sparsely soluble in water |  |  |  | IC50 ([2]; IC-50, human DHFR, table footnote to ND): > 2000 µM |
| NC(=O)c1ccc[n+]([C@@H]2O[C@H](COP(=O)([O-])OP(=O)(O)OC[C@H]3O[C@@H](n4cnc5c(N)ncnc54)[C@H](OP(=O)(O)O)[C@@H]3O)[C@@H](O)[C@H]2O)c1 [NADP^+] |  |  |  |  |  |  | IC50 [4]: ~5 mM; IC50 [5]: ~620 µM |
| Nc1ccc(NC(=O)c2ccc(C(=O)Nc3ccc(N)cc3)cc2)cc1 [NNBABD, N,N'-bis(4-aminophenyl)benzene-1,4-dicarboxamide] | 176.5 ± 1.1 | 10.9 ± 2.16 | sparsely soluble in water | almost complete inhibition | 5160 ± 1410 | 254.5 ± 1.79 | activity against cancer cells [6]: didn't show; bactericidal activity [7]: didn't show |
| O=C(Nc1ccc(Oc2ccc(NC(=O)Nc3ccc([N+](=O)[O-])cc3)cc2)cc1)Nc1ccc([N+](=O)[O-])cc1 [NNCPPU, 1-(4-nitrophenyl)-3-[4-[4-[(4-nitrophenyl)carbamoylamino]phenoxy]phenyl]urea] | 36.6 ± 1.1 | 2.06 ± 0.378 | sparsely soluble in water | almost complete inhibition | 1970 ± 329 | 68.9 ± 1.36 | activity against cancer cells [6]: didn't show; bactericidal activity [7]: didn't show |
| Nc1ccc(-c2nc3nc(N)nc(N)c3nc2-c2ccc(N)cc2)cc1 [NSC61642, 6,7-bis (4-aminophenyl) pteridine-2,4-diamine, reference compound] |  |  |  | unambiguous inhibition |  |  |  |
| Nc1nc2[nH]cc(CCc3ccc(C(=O)N[C@@H](CCC(=O)O)C(=O)O)cc3)c2c(=O)[nH]1 [NSC698037, pemetrexed, reference compound] |  |  |  | unambiguous inhibition |  |  |  |
| C#CCC(Cc1cnc2nc(N)nc(N)c2n1)c1ccc(C(=O)N[C@@H](CCC(=O)O)C(=O)O)cc1 (stereo partly drawn) [NSC754230, pralatrexate, reference compound] |  |  |  | unambiguous inhibition |  |  |  |
| Nc1nc(N)c2c(ccc3[nH]ccc32)n1 [PQD, 7H-Pyrrolo(3,2-f)quinazoline-1,3-diamine, reference compound] | 0.106 ± 0.0012 | 0.0042 ± 0.0005 |  | unambiguous inhibition | 93.4 ± 9 | 3.087 ± 0.0165 | Ki [8]: 3.18 ± 0.51 nM; αKi ([8]; uncompetitive inhibition, NADPH titrated): 72.17 ± 4.23 nM; Kd [9]: 4.48 ± 0.63 nM; kon [9]: 350000 M⁻¹ s⁻¹; mode of inhibitor binding (time dependence, in words) ([9]; E. coli DHFR progress curves): classical tight-binding reversible inhibition; koff ([9]; time-dependent inactivation, 50 μM H2F, 60 μM NADPH): 0.094 ± 0.010 min^1; mode of inhibitor binding (time dependence, in words) [10]: didn't show any slow-onset of inhibition; IC50 ([2]; IC-50, human DHFR): 3.09 ± 0.17 µM; fold reduction in potency (IC-50) for human DHFR vs E. coli DHFR ([2]; selectivity human/E. coli): 30 fold |
